According to US9220411B2, “In-vivo optical imaging method including analysis of dynamic images” (THE GENERAL HOSPITAL CORPORATION, priority 2006, dated 2015):

Assay: Dynamic in-vivo fluorescence imaging of dye biodistribution after tail vein injection
Set-up: species or system mouse
From the text: FIG. 1 illustrates one embodiment of a fluorescent dynamic optical imaging system 10 for imaging small animals such as mice. The imaging system 10 includes an optical detector 16 which is operable to acquire various images of the mouse. The imaging system 10 also includes a processor and display device 11 which is operable to generate and display other images of the mouse.
The system 10 also includes an imaging platform 12 for supporting a mouse in a desired arrangement, such as in a prone position or a supine position. In a preferred embodiment, mirrors 14 are arranged at 45 degree angles with respect to the imaging platform such that multiple views of the mouse, i.e., a top and/or bottom view, and side views of the mouse, are within the field of view of the optical detector 16, which is arranged above the imaging platform 12. Other embodiments can include other arrangements of optical detector 16 and mirrors to provide other views of the mouse. In one embodiment, the optical detector 16 is a cooled 14 bit charge coupled device (CCD) camera including a relay lens 19 and the field of view is approximately 9 cm by 9 cm. Thus, although the camera produces 2D images, these are “enhanced” 2D images since multiple views of the mouse are obtained.
Bifurcated liquid light guides 25 can be used to deliver light from the sources 18A, 18B to shine on the mouse. Other means can also be used. The light sources 18A, 18B and any corresponding filter elements are selected to have desired characteristics according to the optical contrast substances to be used in the imaging process. For example, when using a fluorescent dye such as indocyanine green (ICG) dye, light source 18A can include two laser diodes (160 mW total) to provide excitation light at 785 nm to excite the ICG dye. When using a fluorescent dye such as Dextran Texas Red dye, light source 18B can be a halogen light source, and a motorized filter wheel having a plurality of filter elements can be used to provide filtered light at a desired excitation wavelength range of 570 nm plus or minus 20 nm to excite the Dextran Texas Red dye. The respective light sources can be controlled by an electronic shutter in the 570 nm light path, or digital modulation of the laser diodes to allow synchronization of illumination with the filter elements, tunable filter, and image acquisition.
At process block 34, a second optical contrast substance is introduced or activated in the mouse. For example, a dye such as an ICG dye or a Dextran Texas Red dye can be used and can be injected into the tail vein of an anesthetized mouse. ICG dye is a good choice because it is widely available, clinically approved, and it excites and emits in the near infra-red (NIR) portion of the spectrum, which is advantageous in that light scatter is lower and penetration is higher at NIR wavelengths. In one embodiment, a dye consisting of 0.05 ml of 260 uM ICG dye (Cardiogreen, Fluka) is used. In another embodiment, […] of 360 uM of Dextran Texas Red dye (70,000 MW, Invitrogen) can be used.
At process block 38, a time series of anatomical image data sets of the second optical contrast substance is acquired using the optical detector, preferably while the animal is in the same desired arrangement. This should preferably be performed right after the second optical contrast is introduced. If the second optical contrast agent is a fluorescent dye, a light source having the appropriate spectral characteristics is applied to excite the fluorescent dye. […]

## CC1(C)C(/C=C/C=C/C=C/C=C2\N(CCCCS(=O)(=O)O)c3ccc4ccccc4c3C2(C)C)=[N+](CCCCS(=O)(=O)[O-])c2ccc3ccccc3c21 [ICG, indocyanine green]
mouse, longer timescales (25 minutes), preliminary data
  uptake by adipose tissue: late uptake by adipose tissue, remaining high after 25 minutes
mouse, longer timescales, preliminary data
  uptake by the liver: rapid and sustained uptake by the liver
Prone mouse, by 117 seconds after injection
  distribution of dye in the body: distributed fairly diffusely throughout the mouse
Prone mouse, tail vein injection, early images (first 15 seconds), after the lung phase
  fluorescence signal, next organ distribution: bright signal is seen in the brain, kidneys, spleen and spine
Prone mouse, tail vein injection, early images (first 15 seconds), initial circulation
  fluorescence signal, initial organ distribution: initially the lungs are bright
